# Laboratory results: patent US6884596B2, “Screening and therapeutic methods for promoting wakefulness and sleep” (The Regents of the University of California, priority 2000, dated 2005)
# Tests used:
# [1] = biological target: T1, GPR10 (Homo sapiens, UniProt P49683); details: read-out: apparent affinity for GPR10; cited from earlier work
# T1 sequence (P49683 1-370): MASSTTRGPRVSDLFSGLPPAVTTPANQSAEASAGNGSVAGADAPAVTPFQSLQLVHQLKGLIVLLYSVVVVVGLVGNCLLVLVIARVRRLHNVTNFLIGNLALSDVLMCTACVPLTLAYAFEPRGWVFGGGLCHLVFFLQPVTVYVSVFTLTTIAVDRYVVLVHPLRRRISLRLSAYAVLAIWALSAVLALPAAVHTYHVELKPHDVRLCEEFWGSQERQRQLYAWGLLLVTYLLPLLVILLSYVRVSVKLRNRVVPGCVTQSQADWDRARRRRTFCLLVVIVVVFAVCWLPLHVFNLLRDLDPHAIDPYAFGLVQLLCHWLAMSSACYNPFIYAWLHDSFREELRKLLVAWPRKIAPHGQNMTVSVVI
# [2] = biological target: T1, GPR10; details: cells transfected with GPR10; cited from earlier work
# [3] = system: rat anterior pituitary cells; details: rat anterior pituitary cells in vitro; cited from earlier work
# [4] = system: GAERS (Genetic Absence Epilepsy Rats from Strasbourg); test: absence seizure activity (spike and wave discharges, EEG) in GAERS after ICV injection; type: in vivo, rat
# Procedure: Electroencephalogram (EEG) recordings and intracerebroventricular (ICV) injection into GAERS were performed essentially as described in Liu et al., Brain Res. 545:1-7 (1991). Briefly, six male GAERS (300-400 g) were implanted stereotaxically (AP=−0.8, ML=1.2, CV=3 mm, with bregma as reference) with a permanent stainless steel cannula under pentobarbital anesthesia (40 mg/kg i.p.). All rats were also implanted bilaterally with 4 stainless-steel electrodes at the frontal and parietal cortex and connected to a microconnector. Both the guide cannulae and EEG electrodes were anchored to the skull using retaining screws and dental acrylic cement.
# After one week of recovery, stainless steel injection cannulae were introduced into the guide cannulae so as to extend 2-4 mm beyond their tips. Injection cannulae were connected to a 10 μl microsyringe driven by a pump. Five microliters saline or peptides at various concentrations were microinjected over 1 min through the cannulae while taking EEG recordings continuously throughout the duration of the experiment, in freely moving animals. During EEG recordings the rats were carefully watched and were prevented from falling asleep by gentle sensory stimulation. Seizure frequency was determined as a cumulative duration of spike and wave discharges per consecutive 20 minute periods (seconds of seizure activity per 20 minute recording) after the initial injection. Statistical analysis was performed using the Wilcoxon test.
# PrRP was administered intracerebroventricularly into GAERS rats. EEG was taken throughout the course of the experiment and time spent in seizures (spike and wave discharges (SWD) duration) was tabulated for 20 minute intervals from the initial infusion of either aCSF control or various peptide concentrations. Data from six animals receiving the same treatment were pooled. In comparison to aCSF control, PrRP was able to dose-dependently suppress seizure activity in this animal model (FIGS. 5A-5D). […] This seizure suppressing activity remained significant 60 to 80 minutes after peptide injection.
# The chart calibration was 200 microV/1 sec.
# [5] = system: NMDA receptor-mediated thalamic oscillatory activity; test: NMDA receptor-driven oscillatory activity in thalamic slices (low Mg2+ aCSF with CNQX); design: species or system Sprague-Dawley rats; details: 10 μM; low Mg2+ (0.1 mM) aCSF with 10 μM CNQX; n=4
# Procedure: (§1) Horizontal thalamic slices (400 μm) were prepared from Sprague-Dawley rats (postnatal rats 13-15) using a vibratome (Leica, VTlOOOS). The slices were transferred to a recording chamber after at least 1 hr recovery, and were superfused with artificial cerebrospinal fluid (aCSF) equilibrated with 95% 02/5% CO2 at 0.5 ml/mm. The aCSF contained (in mM): NaCl 126, KCl2.5, NaH2PO4 1.25, CaCl2 2, MgSO4 0.63, NaHCO3 26, and glucose 10. All experiments were carried out in the presence of 10 μM bicuculline maleate and cytochrome c (100 μg/ml) at 34° C. A glass electrode filled with 2 M NaCl was positioned in the nucleus of reticular thalamus (RTN), and extracellular recording was made in response to stimulation of the internal capsule (1-50 μA) every 20-30 sec. After establishing stable oscillatory activity, PrRP was applied for 15-20 min. Paired Student's t-Test was used for statistical analysis. The data were digitized at 1-5 kHz with the Neuronal Activity Acquisition Program (Eclectek Enterprise).
# It was next investigated whether the suppression of RTN oscillatory activity by PrRP is the consequence of AMPA receptor modulation or some general cellular effect. […] The above experiment was thus repeated in a low Mg^2+ (0.1 mM)-aCSF containing 10 μM of the AMPA receptor antagonist CNQX.
# [6] = biological target: T2, PrRP receptor (Homo sapiens, UniProt P49683); details: mammalian cells recombinantly expressing PrRP receptor; cited from earlier work
# T2 construct: expressed in transfected cells
# T2 sequence (P49683 1-370): T1 sequence (P49683 1-370)
# [7] = system: AMPA receptor-mediated thalamic oscillatory activity; test: AMPA receptor-driven oscillatory activity, extracellular recording from RTN in thalamic slices; design: species or system Sprague-Dawley rats
# Procedure: as §1
# The bar on the left indicates the duration of peptide application. The traces at the bottom show representative responses before and in the presence of PrRP, taken at the time points indicated with arrow heads. […]
# [8] = system: sleeping Sprague-Dawley rats; test: EEG/EMG sleep/wake recording in sleeping rats after i.c.v. infusion; type: in vivo, rat
# Procedure: To determine if PrRP modulates sleep/wake or arousal states, varying doses of PrRP were injected i.c.v. into sleeping rats. EEG and EMG were recorded for 150 min in three groups, each consisting of 6 rats, that received either vehicle, 1 nmol PrRP, or 10 nmol PrRP. Analyses were conducted across five consecutive 30-min epochs; vehicle or PrRP were injected at the end of the second epoch. Vehicle-treated rats spent a substantial portion of the entire testing period asleep with characteristic EEG/EMG recordings. EEG and EMG recordings were made from Male Sprague-Dawley rats (300-400 g, Sasco, Oregon, Wis.) according to the method described previously (Berridge et al., J. Neurosci., 16:6999-7009 (1996)).
# Rats were housed in pairs for at least 7-days prior to surgery with ad lib access to food and water on an 11:13 hour light:dark cycle (lights on 7:00 a.m.). Approximately 5 μl of vehicle or PrRP31 dissolved in vehicle ([…]) was infused intracerebroventricularly through a pre-implanted cannula (Berridge et al., supra (1996)). Artificial extracellular fluid (147 mM NaCl, 1.3 mM CaCl2, 0.9 mM MgCl2, 2.5 mM KCl, 5.0 mM NaH2PO4; pH 7.4) plus 200 μg/ml cytochrome c served as vehicle. Infusions were made over a 2-min period using a microprocessor-controlled infusion pump (Harvard Apparatus, South Natick, Mass.). Cortical EEG (ECoG) from the frontal cortex and EMG from the dorsal neck muscles were recorded for 60 min prior to infusion and 90 min following infusion. To be scored as a distinct epoch, the appropriate ECoG and EMG activity patterns needed to persist for a minimum of 15 sec. Time spent in each state was scored and totaled for the five 30 min epochs of the observation period, two during the preinfusion period and three during the post-infusion period. The location of the infusion needle was verified morphologically after each experiment. Data were only used for analysis when EEG recordings were electrically adequate and infusion needle placement was accurate. Statistical analysis was performed using a two-way mixed-design ANOVA with drug treatment as the between-subjects variable and time as the within-subjects variable. Post-hoc analyses were conducted using Tukey's HSD test.
# FIGS. 7B and 7C show the effects of varying concentrations of PrRP infused into the lateral ventricle on total time spent awake (FIG. 7B) and slow-wave slept (FIG. 7C). Symbols represent mean±SEM of the time (sec) spent in the two different behavioral state categories of six animals per 30-min epoch. PRE1 and PRE2 represent pre-infusion epochs. POST1-POST3 represent post-infusion epochs. Vehicle-treated rats spent a substantial proportion of the testing period asleep.
substance,measurement,setting,value
IRPVGRF [PrRP(25-31)],Kd,[1],200 nM
same,calcium mobilization,[2],mobilizes calcium
SRAHQHSMEIRTPDINPAWYAGRGIRPVGRF [PrRP-31],Kd,[1],~1 nM
same,prolactin-releasing activity,[3],having prolactin-releasing activity
TPDINPAWYAGRGIRPVGRF [PrRP-20],Kd,[1],~1 nM
same,prolactin-releasing activity,[3],having prolactin-releasing activity
Prolactin Releasing Peptide [PrRP],"SWD duration, recovery","[4]; 10 nmol ICV, after 40 minutes",returned to baseline
same,SWD duration,"[4]; 10 nmol ICV, first 20 minutes",reduced by half
same,reduction of seizure activity,[4]; 50 nmol ICV,75%
same,reduction of seizure activity,"[4]; 100 nmol ICV, at 20 minutes",~100%
same,other mobility or behavioral changes,[4]; all peptide concentrations (10-100 nmol ICV),No other mobility or behavioral changes were observed
same,effect on NMDA receptor-driven oscillation,[5],no discernible effect
same,arachidonic acid metabolite release,[6],leads to activation of arachidonic acid metabolite release
same,maximum suppression of number of oscillations,"[7]; 10 μM, with DL-APV, bicuculline",approximately 40%
same,inhibition of number of oscillations,"[7]; 20 μM, compared with 10 μM",comparable degree of inhibition
same,calcium mobilization,[2],leads to calcium mobilization
same,total time spent awake,"[8]; 1 nmol i.c.v., post-infusion epochs",only a trend
same,conversion to the awake state,[8]; 10 nmol i.c.v.,nearly complete
same,duration of awake state,[8]; 10 nmol i.c.v.,lasted for well over an hour
same,slow-wave sleep,[8]; 10 nmol i.c.v.,near-complete suppression
same,total time spent awake,"[8]; 10 nmol i.c.v., post-infusion epochs (POST1, POST2)",significantly increased
same,onset of normal waking EEG/EMG patterns,[8]; injected during sleep phase,within minutes
